The results in this text go back to US8802675B2, “Neuroprotective multifunctional compounds and pharmaceutical compositions comprising them” (priority 2009, dated 2014).

A short description of series [1]: Metal chelation assay (UV-vis spectra of metal complexes). Format: physicochemical. Conditions: 5% NH4Ac, pH=7; for complexation with Cu^2+ or Zn^2+: CuSO4 or ZnCl2, UV-vis; for interaction with Fe: FeCl3 or FeSO4, absorbance at 300 nm. An excerpt: Metal chelation, particularly iron chelation, is an important precondition for the antioxidative-function of the multi-functional compounds of the invention, because it is the excessive iron stores and iron-mediated generation of free radicals in the brain that are thought to be associated with neurodegenerative diseases. The novel strategy, according to the present invention, for the treatment of neurodegenerative diseases such as Alzheimer's disease is the design of pro-chelators that inhibit AChE with a concomitant release of the active chelators. This novel strategy has advantages over the current chelator strategy since it is capable not only of minimizing the potential toxicity associated with strong chelators such as the 8-hydroxyquinoline derivatives disclosed in WO 2004/041151, which might interfere with healthy metal metabolism in the brain, but it also offers multiple activities against AChE, Aβ aggregation, oxidative stress, and metal (Fe, Cu, Zn) dyshomeostasis in the brain. Therefore, a metal chelation assay was used to confirm that the new multifunctional pro-chelators that comprise an N,N-dialkylcarbamoyl moiety [N(RR′)CO—] linked to the oxygen at position 8 of quinoline would have little to no affinity for metal ions in their pro-drug form. When these pro-chelators bind to cholinesterase or AChE in the brain, the N,N-dialkylcarbamoyl moiety is dissociated, thus unmasking a free hydroxyl group at said position 8 of quinoline, turning the pro-chelators into active chelators, which passivate excess cerebral metal ions and protect neuronal cells against reactive oxygen species (ROS).
A spectrophotometric method was used for measurement of metal complexes of the multifunctional pro-chelators of the invention with metal ions selected from Zn^2+, Cu^2+, Fe^3+ and Fe^2+, and compared to the respective metal complexes of some known iron chelators disclosed in WO 2004/041151.
Thus, the metal chelating function of compound 13 and compound 23 as compared to M30 and HLA20, respectively, was measured by dissolving 0.1 mM or 0.2 mM of the test compounds in 5% NH4Ac, pH=7, in the presence and absence of 0.1 mM or 0.2 mM of the metal salts […], CuSO4, FeCl3 and FeSO4, and measuring the UV-vis spectra (Hewlett-Packard 8450A diode array spectrophotometer) of the various metal complexes formed. The results for M30 and compound 13 are shown in FIGS. 1A and 1B, respectively.

Series [2] has as its system human SH-SY5Y neuroblastoma cells. As to the kind of experiment: MTT cell viability assay in SH-SY5Y cells. The series is classed as cell-based. The settings on record: MTT after 48 h incubation. The method, then:
Cell culture. Human neuroblastoma SH-SY5Y cells were obtained from American Type Culture Collection (Rockville, Md., USA). Cells were routinely cultured in MEM-Eagle/F-12(HAM) (1:1), containing 10% FCS and a mixture of 2% sodium bicarbonate, 1% penicillin/streptomycin/nystatin and 1% sodium pyruvate. Cell cultures were incubated at 37° C. in a humid 5% CO2-95% air environment.
Twenty-four hours after attachment of the SH-SY5Y cells, the medium was replaced with DMEM containing 0.1% BSA. The test compounds were added to the cells after 1 h of incubation. After 24 h incubation, the cells were subjected to MTT test as previously described (Gassen et al., 1998). The absorption was determined in a Perkin-Elmer Dual Wavelength Eliza-Reader at λ=570/650 nm after automatic subtraction of background readings. The results are expressed as percentage of the untreated control.
The effect of the iron chelators M30 and HLA20 versus that of the pro-chelators 13 and 23, on viability of human SH-SY5Y cells was tested. Human SH-SY5Y neuroblastoma cells were plated in 100-mm culture dishes and cultured in DMEM (4,500 mg/l glucose), containing 10% FCS (fetal calf serum, Bet Haemek, Israel), and 1% of a mixture of penicillin/streptomycin/nystatin. When cells reached the required confluence, they were detached and re-cultured in microtiter plates (96 wells) pre-coated with collagen ([…]), in DMEM with 10% of fetal calf serum (0.5×10^4 cells/well). Cell viability was tested by the 3-(4,5-dimethylthiazol-2-yl)-2,5-diphenyltetrazolium (MTT) assays after 48 h incubation.
For orientation: Formazan colour is commonly taken as a measure of viable cells.

In series [3] the target is T1, butyrylcholinesterase (BuChE) (Rattus norvegicus, UniProt Q9JKC1).
T1 construct: total cholinesterase (ChE) and butyrylcholinesterase (BuChE) activities in rat brain homogenates; from tissue; host or cells: brain homogenate (10% w/v) of adult Wistar rats
T1 sequence (Q9JKC1 24-597): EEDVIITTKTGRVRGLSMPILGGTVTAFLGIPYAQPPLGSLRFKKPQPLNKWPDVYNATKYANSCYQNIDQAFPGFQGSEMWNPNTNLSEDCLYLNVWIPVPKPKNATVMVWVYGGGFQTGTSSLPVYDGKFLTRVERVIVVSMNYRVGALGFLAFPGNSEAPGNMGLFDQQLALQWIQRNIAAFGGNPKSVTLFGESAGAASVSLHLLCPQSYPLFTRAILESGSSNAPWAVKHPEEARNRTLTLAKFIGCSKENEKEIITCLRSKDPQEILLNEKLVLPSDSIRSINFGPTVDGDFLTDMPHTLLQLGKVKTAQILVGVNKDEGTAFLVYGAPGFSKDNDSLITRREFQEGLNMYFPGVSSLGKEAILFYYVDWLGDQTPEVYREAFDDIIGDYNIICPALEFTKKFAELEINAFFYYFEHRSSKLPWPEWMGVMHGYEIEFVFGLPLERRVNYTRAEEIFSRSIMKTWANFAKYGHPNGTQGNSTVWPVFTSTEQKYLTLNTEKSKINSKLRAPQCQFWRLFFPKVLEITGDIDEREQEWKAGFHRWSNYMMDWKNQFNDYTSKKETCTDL
Kind of series: Butyrylcholinesterase inhibition in rat brain homogenates (Ellman). The settings on record: mean SEM, n=3 in triplicates. The series is classed as biochemical. The method, then:
Cholinesterase activity was determined in rat brain homogenate following incubation with varying concentrations of the multifunctional pro-chelators of the invention (also referred to herein as “carbamates”).
Ellman's colorimetric method was adapted for determination of total cholinesterase (ChE) and butyrylcholinesterase (BuChE) activities in rat brain homogenates. Brain tissue from adult Wistar rats was homogenized at 2% w/v (or 10% w/v, for BuChE) in 0.1 M sodium phosphate buffer, pH 7.4, with added NaCl 58.5 g/l and Triton X-100 0.05% v/v. Aliquots of homogenate (20 μl) were incubated with the test compounds for designed time intervals in phosphate buffer pH 7.4, before addition of 5,5′-dithiobis(2-nitrobenzoic) acid and either 1 mM acetylthiocholine iodide or 10 mM butyrylthiocholine iodide (Sigma, St. Louis, Mo.). The reaction was run at 37° C. in a final volume of […] in 96-well microplates and was followed at 412 nm for 5 min with a plate reader. In every experiment, cholinesterase-independent (nonspecific) substrate hydrolysis was determined by including one experimental group treated with tacrine 30 μM. Appropriate tissue and reagent blanks were also included. Reaction velocities were determined in three or four replicates per condition; these were averaged and expressed as percent activity relative to control (solvent), after subtracting the rate of nonspecific hydrolysis.
The results are the mean SEM, n=3 in triplicates. ND—not determined.
In general terms: In Ellman's method for cholinesterases, released thiocholine reacts with DTNB.

Series [4] relates to ChE from rat brain homogenates. Kind of series: Time course of total ChE inhibition at 1 μM versus rivastigmine. The settings on record: for preincubation time to maximum (peak) inhibition on total ChE: 1 μM compound; for ChE inhibition compared with rivastigmine and other carbamates: 1 μM, time course. The series is classed as biochemical. As for the experimental part: The new carbamates of the present invention are expected to act as rivastigmine and inhibit ChE activity. […] Enzyme activity was determined with Ellman's colorimetric method after addition of substrate, and the results are shown in FIGS. 8A-8B.

Bounds are passed on as bounds.

In the case of `C#CCC1CCN(Cc2ccc(OC(=O)N(C)C)c3ncccc23)CC1` [Compound 23, 5-((4-(propargyl)piperidin-1-yl)methyl)quinolin-8-yl dimethylcarbamate], in series [1], the “complexation with Cu^2+ or Zn^2+” value was “little or no complexation” and the “interaction with Fe” value is “weak interaction”. Besides, the cell viability – broadly, a per cent measure of how many cells are alive, often set against a control – in series [2] (10 μM) is reported as “over 75%”. Also, the cell viability entry in series [2] (25 μM) is “over 75%”. Moreover, in series [2] (50 μM), the cell viability stood at 40%. Also, the IC50 (usually the midpoint of a concentration-inhibition curve) in series [3] was determined as 42.6 ± 6.67 µM. Also, in series [4], the “preincubation time to maximum (peak) inhibition on total ChE” value stood at 2 h; the “ChE inhibition compared with rivastigmine and other carbamates” value is “increasingly greater inhibition”.
Turning to `C#CCN(C)Cc1ccc(OC(=O)N(C)CC)c2ncccc12` [Compound 3, 5-((methyl(propargyl)amino)methyl)quinolin-8-yl ethyl(methyl)carbamate], half-maximal inhibition in series [3] (IC50) was put at 60.7 ± 5.33 µM. Besides, in series [4], the “preincubation time to maximum (peak) inhibition on total ChE” value is no more than 1.5 h; the “ChE inhibition compared with rivastigmine and other carbamates” value is “far less potent than the other carbamates”.
In the same order, the values of `C#CCN(C)Cc1ccc(OC(=O)N2CCCC2)c2ncccc12` [Compound 5, 5-((methyl(propargyl)amino)methyl)quinolin-8-yl pyrrolidine-1-carboxylate] are 31.2 ± 6.1 µM, no more than 3 h and “far less potent than the other carbamates”.
In the case of `C#CCN(C)Cc1ccc(O)c2ncccc12` [M30, reference compound], the “binding of metal ions (shift of absorbance peak)” value in series [1] (ZnCl2, CuSO4, FeCl3 and FeSO4) is on record as “binds the respective metal ions”. Besides, the cell viability entry in series [2] (10 μM) is recorded as “similar”.
For `C#CCN(C)Cc1ccc(OC(=O)N2CCN(Cc3ccccc3)CC2)c2ncccc12` [Compound 13, 5-((methyl(propargyl)amino)methyl)quinolin-8-yl 4-benzyl piperazine-1-carboxylate], in series [1], the “complexation with Cu^2+ or Zn^2+” value was “little or no complexation” and the “interaction with Fe” value is listed as “weak interaction”. For the same compound, the cell viability result in series [2] (10 μM) is listed as “similar”. Also, the cell viability result in series [2] (25 μM) is recorded as “significantly higher”. For the same compound, the IC50 in series [3] was 46 ± 3.5 µM. Further, the “ChE inhibition compared with rivastigmine and other carbamates” value in series [4] is recorded as “as potent as rivastigmine”.
